From article PMC11330417, “Insights into the transglucosylation activity of α-glucosidase from Schwanniomyces occidentalis” (Applied Microbiology and Biotechnology, 2024)

Molecular target: T1, α-glucosidase GAM1p (Schwanniomyces occidentalis, UniProt Q401B1, S845A)
T1 construct: gene GAM1; full-length gene with own signal peptide of 22 residues (960 aa precursor), no tag (native stop codon), AOX1 promoter vector pIB4, secreted by Komagataella phaffii GS115; glycosylated, about 143 kDa; concentrated on 50-kDa membrane
T1 sequence (Q401B1 entry or part of it S845A): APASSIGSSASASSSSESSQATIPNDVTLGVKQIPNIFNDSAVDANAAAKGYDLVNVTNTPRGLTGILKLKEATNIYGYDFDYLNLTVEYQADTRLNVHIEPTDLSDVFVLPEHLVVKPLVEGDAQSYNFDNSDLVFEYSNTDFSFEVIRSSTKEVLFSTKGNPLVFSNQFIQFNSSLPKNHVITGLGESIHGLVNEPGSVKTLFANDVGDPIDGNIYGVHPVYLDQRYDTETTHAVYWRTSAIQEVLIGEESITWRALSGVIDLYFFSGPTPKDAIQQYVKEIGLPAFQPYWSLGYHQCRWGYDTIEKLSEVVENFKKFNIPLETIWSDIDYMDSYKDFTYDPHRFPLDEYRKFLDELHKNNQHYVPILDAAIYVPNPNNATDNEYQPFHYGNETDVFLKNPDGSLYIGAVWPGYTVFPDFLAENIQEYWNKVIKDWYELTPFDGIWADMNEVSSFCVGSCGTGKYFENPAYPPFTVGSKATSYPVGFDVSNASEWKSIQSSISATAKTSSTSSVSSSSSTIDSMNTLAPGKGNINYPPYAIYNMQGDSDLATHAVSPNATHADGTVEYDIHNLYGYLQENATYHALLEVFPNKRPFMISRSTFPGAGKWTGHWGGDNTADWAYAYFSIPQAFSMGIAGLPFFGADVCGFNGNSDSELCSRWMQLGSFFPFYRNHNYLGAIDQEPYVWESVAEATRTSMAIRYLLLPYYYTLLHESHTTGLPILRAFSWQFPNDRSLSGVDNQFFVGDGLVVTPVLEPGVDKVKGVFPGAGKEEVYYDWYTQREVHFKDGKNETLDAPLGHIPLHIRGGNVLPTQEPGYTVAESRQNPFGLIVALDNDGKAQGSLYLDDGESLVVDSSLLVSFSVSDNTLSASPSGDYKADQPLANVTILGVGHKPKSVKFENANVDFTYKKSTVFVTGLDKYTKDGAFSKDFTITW
Experiment: HPLC-PAD, MS and NMR of glucosylated products
Format: biochemical
Details: glucosyl acceptor; 20 mM piceid, 300 g/L maltose as donor, 20% DMSO, sodium acetate pH 4.5, 37 °C

**Q.** Which “HPLC-PAD, MS and NMR of glucosylated products” value does the source give for `OC[C@H]1O[C@@H](Oc2cc(O)cc(/C=C/c3ccc(O)cc3)c2)[C@H](O)[C@@H](O)[C@@H]1O` (mixture of isomers) [piceid] here?
**A.** GAM1p was only able to glycosylate piceid (polydatin)
